Data as given in PubChem BioAssay (NCI).
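Grown in 96-well plates, cells were treated for 48 hours with each compound at five concentrations. Insufficient inhibition: endpoint recorded as highest concentration tested. GI50 = concentration required for 50% inhibition of growth. Definition used: TGI = concentration required for complete inhibition of growth.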

Assays:
Assay in all cases: growth of human tumour cells (NCI), 48 h
[1] = test system: SF-295 CNS
[2] = test system: M14 melanoma
[3] = test system: UACC-257 melanoma
[4] = test system: OVCAR-4 ovarian
[5] = test system: SNB-19 CNS
[6] = test system: MDA-MB-435
[7] = test system: UO-31 renal
[8] = test system: A498 renal
[9] = test system: HOP-92 NSCLC
[10] = test system: SK-MEL-5 melanoma
[11] = test system: COLO 205 colon
[12] = test system: SF-268 CNS
[13] = test system: HT29 colon
[14] = test system: SNB-75 CNS

Row | Compound | TGI [1] [µM] | TGI [2] [µM] | TGI [3] [µM] | TGI [4] [µM] | TGI [5] [µM] | TGI [6] [µM] | TGI [7] [µM] | TGI [8] [µM] | TGI [9] [µM] | TGI [10] [µM] | TGI [11] [µM] | TGI [12] [µM] | TGI [13] [µM] | TGI [14] [µM] | GI50 [6] [µM]
1 | O=c1c2cc(S(=O)(=O)O)ccc2nc(COc2ccc(Oc3ccc(Cl)cc3Cl)cc2)n1-c1ccc(Cl)cc1Oc1c(Cl)cccc1Cl | 56.6 | 55.8 | 86.6 | > 100 | > 100 | 66.5 | 37 | 67.3 | 47.1 | 32.1 | 32.1 | 35.7 | 39.9 |  | 
2 | c1ccc2c(c1)nc1n2CNC1 | > 100 | > 100 | > 100 | > 100 | > 100 | > 100 | > 100 | > 100 | > 100 | > 100 | > 100 | > 100 | > 100 | > 100 | 
3 | COC(=O)C1C(=O)C=CN([C@H](C)c2ccccc2)[C@@H]1Cc1ccc(OC)c(OCc2ccccc2)c1I (stereo not given in full) | 35.5 | 30.2 | 39.3 | 79.9 | 86.4 | 47.8 | 26.3 | 34.8 | 17.4 | 27.4 | 31.7 | 41.1 | 26.7 |  | 
4 | CN(C)CCCN1c2ccccc2Sc2cnccc21 | > 100 | > 100 | 49.5 | > 100 | > 100 | > 100 | > 100 | > 100 | > 100 | > 100 | > 100 | > 100 | > 100 | > 100 | 
5 | CC(=O)OCCOCn1cnc2c(Cl)nc(Cl)nc21 |  | 37.1 | 36.8 | 37.5 | > 100 | 33.5 | 36.4 | 91.2 | 3.37 | 33 | 38.1 | 36.6 | 32.9 | 51.7 | 
6 | CCOP(=O)(CN1CCNCCNCC1)OCC | > 100 | > 100 | > 100 | > 100 | > 100 | > 100 | > 100 | > 100 | > 100 | > 100 | > 100 |  | > 100 | > 100 | 
7 | Cc1cccc2c(N)c3cccc(C(=O)NCC[N+](C)(C)Cc4c([N+](=O)[O-])ncn4C)c3nc12 | > 100 | > 100 | > 100 | > 72.5 | > 100 | > 100 | 69.1 | > 100 | > 100 | > 88.8 | > 100 | > 100 | > 40.4 | > 100 | 
8 | CC(=O)OC1(C)C=CC(=O)C=C1 | > 100 | > 100 | 34.4 | > 100 | > 100 | > 100 | 46.4 | 84 | > 100 | > 100 | > 100 | > 100 | > 100 | > 100 | 
9 | C=C(CC[C@@H](C)[C@H]1CC[C@@]2(C)C3=C(CC[C@]12C)[C@@]1(C)CC[C@H](O)[C@@H](C)C1CC3)C(C)C (stereo not given in full) | 2.27 | 2.36 | 2.7 | 3.3 | 4.45 | 2.82 | 2.35 | 2.58 | 2.54 | 2.55 | 2.41 |  | 1.97 | 2.49 | 
10 | Cc1ccc(C)c(COCCOCn2ccc(N)nc2=O)c1 | > 100 | > 100 | > 100 |  | > 100 | > 100 | > 100 | > 100 | > 100 |  | > 100 | > 100 |  | > 100 | 
11 | CC1=CC(=O)N(n2c(Cc3ccccc3)n[nH]c2=O)C1=O | > 100 | > 100 | > 100 | > 100 | > 100 | > 100 | > 100 | > 100 | > 100 | > 100 | > 100 | > 100 | > 100 |  | 
12 | COc1cc(O)c2c(c1)OCC(Cc1ccc(O)cc1)C2=O (stereo not given) | > 100 | > 100 | > 100 | > 100 | > 100 | > 100 | > 100 | > 100 | > 100 | > 100 | > 100 | > 100 | > 100 | > 100 | 
13 | COc1ccc(C2=Nn3c(nnc(Cc4ccc(Cl)cc4)c3=O)SC2)cc1 | > 100 | 91 | > 100 | > 100 | > 100 | 33.4 | > 100 | > 100 | > 100 | > 100 | > 100 | > 100 | > 100 |  | 
14 | Cc1ccc(NC(=O)c2cccc(OP(=O)(O)Nc3ccc(C)cc3)c2)cc1 | > 100 | > 100 | > 100 | > 100 | > 100 | > 100 | > 100 | > 100 | > 100 | > 100 | > 100 | > 100 | > 100 | > 100 | 
15 | CCNc1cc2c(cc1O)CC[C@@H]1[C@@H]2CC[C@]2(C)[C@@H](O)CC[C@@H]12 | 13.3 | 18.9 | 25 | 21.5 | > 46.1 | 0.712 | 24.3 | 6.16 | 22.4 | 11.8 | 27.8 | 37.9 | 33.7 | 11.4 | 0.0515
16 | CNC(=O)N1CN(c2ccccc2)C2(CCN(CCCC3(c4ccc(F)cc4)OCCO3)CC2)C1=O | > 100 | > 100 |  | > 100 | > 100 | > 100 | > 100 | > 100 | > 100 | > 100 | > 100 | > 100 | > 100 | > 100 | 
17 | NC(N)=N/N=C/c1c(-c2cccc([N+](=O)[O-])c2)nc2n1CCS2 | 54.6 | 60 | 36.1 | 29.8 | 32.1 | 55.3 | 30.6 | 32.9 | 39.7 | 32.5 | 60.6 | 46.6 | 32.7 | 25.1 | 

Row | Compound | TGI [1] [µM] | TGI [2] [µM] | TGI [3] [µM] | TGI [4] [µM] | TGI [5] [µM] | TGI [6] [µM] | TGI [7] [µM] | TGI [8] [µM] | TGI [9] [µM] | TGI [10] [µM] | TGI [11] [µM] | TGI [12] [µM] | TGI [13] [µM] | TGI [14] [µM] | GI50 [6] [µM]
18 | CCN(CC)CC(=O)O[C@]1(CC)C(=O)OCc2c1cc1n(c2=O)Cc2cc3ccccc3nc2-1 | 1.08 | 0.318 | 1.05 | 0.62 | 11.3 | 0.862 | 0.182 | 0.256 | 2.12 | 0.171 | 3.22 |  |  | 0.677 | 
19 | CC12CCC([C@H](C(O)C3CCCCC3)C1=O)C2(C)C (stereo not given in full) | > 100 | > 100 | > 100 | > 100 | > 100 | > 100 | > 100 | > 100 | > 100 | > 100 | > 100 | > 100 |  | > 100 | 
20 | Cc1[nH]n(C2=NCCN2)c(=O)c1Cc1ccccc1 | > 100 | > 100 | > 100 | > 100 | > 100 | > 100 | > 100 | > 100 | > 100 | > 100 | > 100 | > 100 | > 100 |  | 
21 | COc1cc(/C=C2\N=C(c3ccccc3)N(c3nc4c(OC)ccc(OC)c4s3)C2=O)ccc1O | > 100 | > 100 | > 100 |  | > 100 | 50.7 | > 100 | > 100 | > 100 | > 100 | > 100 | > 100 | > 100 | 93.2 | 
22 | COC1(OC)CC(CO)(CNc2nc(N)nc(Cl)c2/C=N\O)C1 | > 100 |  | > 100 | > 100 | > 100 | > 100 | > 100 | 98.5 | 89.2 | > 100 | > 100 | > 100 | > 100 | > 100 | 
23 | COc1cc2c(cc1OC)CCc1cc(OC)c(OC)cc1CC2 | > 100 | > 100 | > 100 | > 100 | > 100 | > 100 | > 100 | > 100 | > 100 | > 100 | > 100 |  | > 100 | > 100 | 
24 | CC1ON2CCCC2[C@H]1C(=O)N1C2CC3CCC2(CS1(=O)=O)C3(C)C (stereo not given in full) | > 100 | > 100 | > 100 | > 100 |  | > 100 | > 100 | > 100 | > 100 | > 100 | > 100 | > 100 | > 100 | > 100 | 
25 | NC(=S)Nc1ccc(S(=O)(=O)Nc2ccc(S(N)(=O)=O)cc2)cc1 | > 100 | > 100 | > 100 | > 100 | > 100 | > 100 | > 100 | > 100 | > 100 | > 100 | > 100 |  | > 100 |  | 
26 | COC(=O)C(NC(=O)c1ccccc1)c1ccco1 (stereo not given) | > 100 | > 100 | > 100 |  | > 100 | > 100 | > 100 | > 100 | > 100 | > 100 |  | > 100 | > 100 | > 100 | 
27 | COc1ccc(CCN2CCN(CCc3ccc(OC)cc3)CC2)cc1 | > 100 | > 100 | > 100 | > 100 | > 100 | > 100 | > 100 | > 100 | > 100 | > 100 | > 100 | > 100 | > 100 |  | 
28 | CC(C)=CC(=O)C[C@H]1C(=O)O[C@@H]2C[C@H]3C(C)=CC(=O)[C@@H](O)[C@]3(C)[C@H]3[C@@]4(O)OC[C@]32[C@@H]1[C@@H](C)[C@H]4O | 0.152 | 0.115 | 0.608 | 1.05 |  | 0.305 |  | 1.15 | 0.328 | 0.0612 |  | 0.21 |  | 0.103 | 
29 | COC(=O)C1=C(C(=O)OC)c2cc(OC)ccc2C(C(=S)N(C)C)S1 (stereo not given) | > 100 | > 100 | > 100 | > 100 | > 100 | > 100 | > 100 | > 100 | > 100 |  | > 100 | > 100 |  | > 100 | 
30 | CSC1=N/C(=C\c2ccccc2)C(=O)N1CN1CCCCC1 | > 100 | > 100 |  | 56.4 | > 100 | > 100 | > 100 | > 100 | > 100 | > 100 | > 100 | > 100 | 90.7 | > 100 | 
31 | N#Cc1c(-c2ccccc2)cc(Nc2cccc(C(F)(F)F)c2)n2c1nc1ccccc12 | 12.6 |  | 9.76 | 22.2 |  | 17.1 |  | 12.6 | 0.769 | 1.78 | 2.39 | 11.5 | 4.6 | 9.53 | 
32 | CCn1c2ccccc2n2c(=O)c3c(c(C#N)c12)CCCC3 | > 100 | > 100 | > 100 | > 100 | > 100 | > 100 | > 100 | > 100 | > 100 | > 100 | > 100 | > 100 | > 100 |  | 
33 | Cc1ccccc1N=Nc1ccc(N/N=C2/CCCNC2=O)c(C)c1 | > 100 | > 100 | > 100 | > 100 | > 100 | > 100 | > 100 | > 100 | > 100 | > 100 | > 100 | > 100 | > 100 |  | 
34 | O=c1oc2cc(O)ccc2c(O)c1C(c1ccccc1F)c1c(O)c2ccc(O)cc2oc1=O | > 100 | > 100 | > 100 |  | > 100 | > 100 | > 100 | > 100 | > 100 | > 100 | > 100 | > 100 | > 100 | > 100 | 
